Test results from publication PMC10447463, “Data-mining unveils structure–property–activity correlation of viral infectivity enhancing self-assembling peptides” (Nature Communications, 2023).

What was measured:
[1] = Zeta-potential measurement; format: physicochemical; parameters: Zeta-Potential: unit not given here; conditions: for Zeta-pot. / mV: zeta potential of peptide, Fig S15 source data
Experimental: (§1) 4 µL of 1 mg/mL peptide fibrils solution is added to a 20 µL, 50 µM ThT–solution in PBS. The mixture is incubated for 15 min at RT to allow binding of ThT dye with β–sheet rich structures. For reference PBS (4 µL) was added instead of peptide fibril solution. The samples were placed in black UV Star® 384 microliter well–plates (Greiner bio–one). Fluorescence spectra were recorded on an Infinite® M1000 PRO microplate reader (Tecan) at λem = 488 nm upon excitation at λex = 440 nm with 10 nm bandwidths and multiple reads per well (3×3). Measurements were repeated in triplicates and averaged with standard deviation. […] Zeta-Potential. For the determination of the surface charge of aggregated peptides zeta-potential measurements were conducted with a Zetasizer Nano ZS, Malvern Instruments. Unless stated otherwise the peptides were dissolved from DMSO (10 mg/mL) in PBS (pH 7.4) to concentration of 1 mg/mL and incubated for 1d at RT. Just before the measurement the 60 µL of the peptides were further diluted in 600 µL KCl (aq, 1 mM) in a 1 mL disposable folded capillary cells (DTS–1060, Zetasizer Nano series, Malvern). The zeta potential of the peptides was derived from the electrophoretic mobility based on the Smoluchowski formula. All measurements were averaged over two individually performed experiments and conducted in triplicates for each sample. Aggregate analysis. […] Furthermore, fluorescence microscopy was conducted by staining 1 µL preformed fibrils (1 mg/mL) with 9 µL ThT (50 µM). Brightfield microscopy was performed simultaneously to evaluate aggregation also for non ThT-active fibrils. The measurements were performed on a Leica DMi8 microscope with 10x air objective and equipped with a Leica MC170 HD camera with a filter setting λem = 527/30 nm upon excitation at λex = 480/40 nm) and processed with the Leica LASX software. To quantify size and number of microscopic aggregation of particles > 10 µm^2 at least 3 independently measured images were analyzed via the 3D object counter analysis tool of ImageJ, v 1.53f51. Sum–frequency generation. The SFG experiments were carried out with a femtosecond Ti: Sapphire amplified laser system (Spitfire Ace, Spectra–Physics, 800 nm, 40 fs, 1 kHz) with 5 W output power. We used 2 W to pump an optical parametric amplifier (TOPAS, light conversion) with a non–collinear difference frequency generation stage to generate broadband IR pulses. Another 1 W of the laser output passed through an etalon to generate narrowband visible pulses (10 cm^-1). The incident angles of the visible and IR beams were 36° and 41° with respect to the surface normal, respectively. The visible (13 µJ) and IR (5 µJ) pulses were overlapped spatially and temporally at the sample position. Subsequently, the generated SFG pulse was guided into a spectrograph (Acton SP 300i, Princeton Instruments), and detected with an EMCCD (Newton, Andor Technology). To avoid IR absorption of water vapor, we purged N2 for the measurement. All spectra were collected in the ssp (denoting s-, s- and p-polarized SFG, visible and IR, respectively) polarization combination. The spectra were normalized to the non–resonant signal taken from z–cut quartz after subtracting a background spectrum. […]

[2] = tested on: HIV-1 infection of TZM-bl cells; experiment: HIV-1 infectivity enhancement assay, β-galactosidase luminescence; format: cell-based; conditions: for Log10 Inf. rel. to EF-C: log10 of HIV-1 infection of TZM-bl cells relative to EF-C, Fig S15 source data, asymmetric std dev errors
[3] = Turbidity, derived count rate of scattered light; format: physicochemical; conditions: derived count rate of scattered light
Experimental: as §1
ways to determine turbidity of samples, this can be via transmittance and via scattering. Transmittance […]
as it is an easy and fast method.10,11 However, transmittance contributes not only from µm-sized aggregates but also nm-sized aggregates such as distinct fibrils, which makes hard to distinguish between fibril formation and micrometer sized aggregation. Although dynamic light scattering is a frequently applied method for determination of particle size, it cannot be conducted in solutions with anisotropic aggregates in micrometer size range, since the Stokes-Einstein relation is only applicable for homogeneous […] spherical particles.12 Further models describing scattering intensity and […]

[4] = infectivity class (low / medium / high) of each library peptide, main list in c1-c6, same classes repeated in sub-lists of sequences containing the hydrophobicity/charge patterns P+,H0,P+,H0,P0,H0,P0, P+,H0,P0,H0,P0,H0,P0, P+,H0,P0,H0
[5] = infectivity class (low / medium / high) of the peptide in the sequence-pattern analysis, Fig. S22-A4, class limits not given

Q: What does the source list for CETMYDKILKNLSRSR [CR16]?
A: Zeta-pot. / mV [1]: 0.41 mV; infectivity [2, 4]: low; Log10 Inf. rel. to EF-C [2]: -1.716

Q: What does the source list for CKFC [CN33]?
A: Zeta-pot. / mV [1]: -19.89 mV; infectivity [2, 4]: low; Log10 Inf. rel. to EF-C [2]: -1.959

Q: With CKFQC [CN31] as the substance, how does the “Zeta-pot. / mV” value [1] read?
A: -17.38 mV

Q: What about the infectivity [2, 4] of the same substance?
A: low

Q: What about the “Log10 Inf. rel. to EF-C” value [2] of the same substance?
A: -1.643

Q: For CKIKQIIRGD [psis22], which “Zeta-pot. / mV” value [1] is on record?
A: 13.2 mV

Q: And the infectivity [2, 5]?
A: low

Q: What about the “Log10 Inf. rel. to EF-C” value [2] of the same substance?
A: -1.311

Q: For EFEFQF [KB11], which “Zeta-pot. / mV” value [1] is on record?
A: -24.5 mV

Q: What about the infectivity [2, 4] of the same substance?
A: low

Q: And the “Log10 Inf. rel. to EF-C” value [2]?
A: -2.485

Q: Which results are given for EIEIEIEI [JR12]?
A: Zeta-pot. / mV [1]: -8.92 mV; infectivity [2, 4]: low; Log10 Inf. rel. to EF-C [2]: -1.748

Q: Which results are given for EIKIQINM [TM73]?
A: Zeta-pot. / mV [1]: -22.33 mV; infectivity [2, 4]: low; infectivity [2, 5]: low; Log10 Inf. rel. to EF-C [2]: -1.001

Q: Which “Zeta-pot. / mV” value [1] does the source give for FDPFDPFDP [CN24] here?
A: -10.9 mV

Q: And the infectivity [2, 4]?
A: low

Q: And the “Log10 Inf. rel. to EF-C” value [2]?
A: -1.6317

Q: Which results are given for FKFDKFKFDK [CN26]?
A: Zeta-pot. / mV [1]: -12.7 mV; infectivity [2, 4]: low; Log10 Inf. rel. to EF-C [2]: -1.334

Q: For HGDKCHGDKC [CN2], which “Zeta-pot. / mV” value [1] is on record?
A: -11.63 mV

Q: And the infectivity [2, 4]?
A: low

Q: What about the “Log10 Inf. rel. to EF-C” value [2] of the same substance?
A: -1.991

Q: What does the source list for HGEHGE [CN6]?
A: Zeta-pot. / mV [1]: -12.6 mV; infectivity [2, 4]: low; Log10 Inf. rel. to EF-C [2]: -2.193

Q: What does the source list for HGEHGEHGE [CN7]?
A: Zeta-pot. / mV [1]: -24.2 mV; infectivity [2, 4]: low; Log10 Inf. rel. to EF-C [2]: -1.72

Q: Which results are given for HHHHEIEIEIEI [JR9]?
A: Zeta-pot. / mV [1]: -6.91 mV; infectivity [2, 4]: low; Log10 Inf. rel. to EF-C [2]: -1.534

Q: With HRRHFRHKITKKK [CN29] as the substance, how does the “Zeta-pot. / mV” value [1] read?
A: -9.223 mV

Q: And the infectivity [2, 4]?
A: low

Q: What about the “Log10 Inf. rel. to EF-C” value [2] of the same substance?
A: -1.868

Q: Which results are given for IKVAVKIKIQINM [TM74]?
A: Zeta-pot. / mV [1]: 14.5 mV; infectivity [2, 4]: medium; Log10 Inf. rel. to EF-C [2]: -0.3046

Q: For ILKNLSRSRKIKIQIC [TM116], which “Zeta-pot. / mV” value [1] is on record?
A: 18 mV

Q: What about the infectivity [2, 4] of the same substance?
A: medium

Q: And the “Log10 Inf. rel. to EF-C” value [2]?
A: -0.4741

Q: Which “Zeta-pot. / mV” value [1] does the source give for KFKFEFEF [MGe01] here?
A: -2.55 mV

Q: And the infectivity [2, 5]?
A: low

Q: What about the “Log10 Inf. rel. to EF-C” value [2] of the same substance?
A: -1.547

Q: Which “Zeta-pot. / mV” value [1] does the source give for KIEIQINM [NM6] here?
A: -0.35 mV

Q: What about the infectivity [2, 5] of the same substance?
A: low

Q: And the “Log10 Inf. rel. to EF-C” value [2]?
A: -1.458

Q: Which “Zeta-pot. / mV” value [1] does the source give for KIRGKFEKED [CN30] here?
A: -12.7 mV

Q: What about the infectivity [2, 4] of the same substance?
A: low

Q: And the “Log10 Inf. rel. to EF-C” value [2]?
A: -1.2355

Q: Which results are given for KKFQKKFQ [CN21]?
A: Zeta-pot. / mV [1]: -9.19 mV; infectivity [2, 4]: low; Log10 Inf. rel. to EF-C [2]: -1.545

Q: Which results are given for KNDKND [CN5]?
A: Zeta-pot. / mV [1]: -15 mV; infectivity [2, 4]: low; Log10 Inf. rel. to EF-C [2]: -1.978

Q: Which results are given for KNERIKNERI [CN3]?
A: Zeta-pot. / mV [1]: -16 mV; infectivity [2, 4]: low; Log10 Inf. rel. to EF-C [2]: -1.888

Q: For KVKGVGK [CN27], which “Zeta-pot. / mV” value [1] is on record?
A: -12.8 mV

Q: What about the infectivity [2, 4] of the same substance?
A: low

Q: And the “Log10 Inf. rel. to EF-C” value [2]?
A: -1.587

Q: For KYKGAIIGNIK [CN19], which “Zeta-pot. / mV” value [1] is on record?
A: -9.14 mV

Q: And the infectivity [2, 4]?
A: low

Q: And the “Log10 Inf. rel. to EF-C” value [2]?
A: -2.508

Q: What does the source list for Lysozyme?
A: Zeta Potential ([1]; mean of n = 3): 4.807; Zeta-Potential ([1]; replicate 1): 4.05; Zeta-Potential ([1]; replicate 2): 5.03; Zeta-Potential ([1]; replicate 3): 5.34; Count Rate ([3]; mean of n = 3): 217.9 kcps; Count Rate ([3]; replicate 1): 304.4 kcps; Count Rate ([3]; replicate 2): 195.7 kcps; Count Rate ([3]; replicate 3): 153.6 kcps

Q: For MDQMDQMDQMDQMDQ [CN23], which “Zeta-pot. / mV” value [1] is on record?
A: -14.98 mV

Q: And the infectivity [2, 4]?
A: low

Q: And the “Log10 Inf. rel. to EF-C” value [2]?
A: -2.37

Q: What does the source list for MKFM [CN32]?
A: Zeta-pot. / mV [1]: -16 mV; infectivity [2, 4]: low; Log10 Inf. rel. to EF-C [2]: -1.756

Q: Which “Zeta-pot. / mV” value [1] does the source give for NMWQKVGTPL [JG7] here?
A: -9.62 mV

Q: What about the infectivity [2, 4] of the same substance?
A: low

Q: What about the “Log10 Inf. rel. to EF-C” value [2] of the same substance?
A: -1.607

Q: Which “Zeta-pot. / mV” value [1] does the source give for PPFHPPPFHP [CN22] here?
A: -15.8 mV

Q: What about the infectivity [2, 4] of the same substance?
A: low

Q: What about the “Log10 Inf. rel. to EF-C” value [2] of the same substance?
A: -1.751

Q: Which “Zeta-pot. / mV” value [1] does the source give for RGDKIRGDKI [CN4] here?
A: -13.57 mV

Q: What about the infectivity [2, 4] of the same substance?
A: low

Q: And the “Log10 Inf. rel. to EF-C” value [2]?
A: -2.126

Q: For RPRGLLLGNLR [CN20], which “Zeta-pot. / mV” value [1] is on record?
A: -8.15 mV

Q: What about the infectivity [2, 4] of the same substance?
A: low

Q: What about the “Log10 Inf. rel. to EF-C” value [2] of the same substance?
A: -1.3163

Q: For SISISRRI [CN28], which “Zeta-pot. / mV” value [1] is on record?
A: -17 mV

Q: And the infectivity [2, 4]?
A: low

Q: And the “Log10 Inf. rel. to EF-C” value [2]?
A: -1.548

Q: For TKTLTKTL [CN25], which “Zeta-pot. / mV” value [1] is on record?
A: -25.1 mV

Q: What about the infectivity [2, 4] of the same substance?
A: low

Q: And the “Log10 Inf. rel. to EF-C” value [2]?
A: -1.671
